Source: publication PMC5474674, “D-BMAP18 Antimicrobial Peptide Is Active In vitro, Resists to Pulmonary Proteases but Loses Its Activity in a Murine Model of Pseudomonas aeruginosa Lung Infection” (Frontiers in Chemistry, 2017)
Values after ≈ are worked out from the molar mass of the structure shown. Where a SMILES comes first, the peptide text is derived from it. [ ]: non-standard residue; d: D form.

Key:
P. aeruginosa PA21 = test: MIC/MBC broth microdilution; format: cell-based, Pseudomonas aeruginosa; conditions: D-BMAP18, strain PA21, n = 6
Protocol: (§1) MIC values were determined using the broth microdilution method.

P. aeruginosa PA01 = test: MIC/MBC broth microdilution; format: cell-based, Pseudomonas aeruginosa; conditions: D-BMAP18, strain PA01, n = 6
Protocol: as §1

P. aeruginosa RP73 = test: MIC/MBC broth microdilution; format: cell-based, Pseudomonas aeruginosa; conditions: D-BMAP18, strain RP73, n = 6
Protocol: as §1

P. aeruginosa PA07 = test: MIC/MBC broth microdilution; format: cell-based, Pseudomonas aeruginosa; conditions: D-BMAP18, strain PA07, n = 6
Protocol: as §1

P. aeruginosa PA14 = test: MIC/MBC broth microdilution; format: cell-based, Pseudomonas aeruginosa; conditions: D-BMAP18, strain PA14, n = 6
Protocol: as §1

P. aeruginosa PA08 = test: MIC/MBC broth microdilution; format: cell-based, Pseudomonas aeruginosa; conditions: D-BMAP18, strain PA08, n = 6
Protocol: as §1

P. aeruginosa PA09 = test: MIC/MBC broth microdilution; format: cell-based, Pseudomonas aeruginosa; conditions: D-BMAP18, strain PA09, n = 6
Protocol: as §1

P. aeruginosa PA31 = test: MIC/MBC broth microdilution; format: cell-based, Pseudomonas aeruginosa; conditions: D-BMAP18, strain PA31, n = 6
Protocol: as §1

P. aeruginosa PA10 = test: MIC/MBC broth microdilution; format: cell-based, Pseudomonas aeruginosa; conditions: D-BMAP18, strain PA10, n = 6
Protocol: as §1

P. aeruginosa PA05 = test: MIC/MBC broth microdilution; format: cell-based, Pseudomonas aeruginosa; conditions: D-BMAP18, strain PA05, n = 6
Protocol: as §1

P. aeruginosa PA03 = test: MIC/MBC broth microdilution; format: cell-based, Pseudomonas aeruginosa; conditions: D-BMAP18, strain PA03, n = 6
Protocol: as §1

P. aeruginosa PA22 = test: MIC/MBC broth microdilution; format: cell-based, Pseudomonas aeruginosa; conditions: D-BMAP18, strain PA22, n = 6
Protocol: as §1

S. aureus SA4 = test: MIC broth microdilution; format: cell-based, Staphylococcus aureus; conditions: D-BMAP18, strain SA4, MH broth, 37°C 24 h, n = 6
Protocol: as §1

S. aureus SA3 = test: MIC broth microdilution; format: cell-based, Staphylococcus aureus; conditions: D-BMAP18, strain SA3, MH broth, 37°C 24 h, n = 6
Protocol: as §1

P. aeruginosa = format: cell-based, Pseudomonas aeruginosa; conditions: 24 h
Protocol: P. aeruginosa, S. maltophilia, and Staphylococcus aureus strains were originally isolated from respiratory specimens of CF patients admitted to the “Bambino Gesù” Children Hospital in Rome and previously tested with AMPs (Pompilio et al., [2012]). P. aeruginosa RP73, and PAO1 were tested as reference strains.
as §1

[1] = broth microdilution, MH broth, 37°C 24 h
[2] = kills at least 99.9% of inoculum

CC(C)C[C@@H](NC(=O)[C@@H](CCCCN)NC(=O)[C@@H](CCCCN)NC(=O)[C@@H](Cc1ccccc1)NC(=O)[C@@H](CC(C)C)NC(=O)[C@@H](CCCCN)NC(=O)[C@@H](CCCCN)NC(=O)[C@@H](Cc1ccccc1)NC(=O)[C@@H](CCCCN)NC(=O)[C@@H](CCCCN)NC(=O)[C@@H](CCCNC(=N)N)NC(=O)[C@@H](Cc1ccccc1)NC(=O)[C@@H](CCCNC(=N)N)NC(=O)[C@@H](CCCCN)NC(=O)[C@@H](Cc1ccccc1)NC(=O)[C@@H](CCCNC(=N)N)NC(=O)CN)C(=O)N[C@H](CO)C(N)=O [D-BMAP18] (H-G[dR][dF][dK][dR][dF][dR][dK][dK][dF][dK][dK][dL][dF][dK][dK][dL][dS]-NH2) showed an MIC (P. aeruginosa PA21; [1]) of 16 mg/L (≈ 6.83 µM), an MBC (P. aeruginosa PA21; [2]) of 32 mg/L (≈ 13.7 µM) and an MIC (P. aeruginosa PA01; [1]) of 8 mg/L (≈ 3.42 µM). The MBC (P. aeruginosa PA01; [2]) was 32 mg/L (≈ 13.7 µM), the MIC (P. aeruginosa RP73; [1]) was 4 mg/L (≈ 1.71 µM) and the MBC (P. aeruginosa RP73; [2]) was 8 mg/L (≈ 3.42 µM). The MIC (P. aeruginosa PA07; [1]) was 8 mg/L (≈ 3.42 µM), the MBC (P. aeruginosa PA07; [2]) was 8 mg/L (≈ 3.42 µM) and the MIC (P. aeruginosa PA14; [1]) was 16 mg/L (≈ 6.83 µM). For the same compound, the MBC (P. aeruginosa PA14; [2]) was 32 mg/L (≈ 13.7 µM), the MIC (P. aeruginosa PA08; [1]) was 8 mg/L (≈ 3.42 µM) and the MBC (P. aeruginosa PA08; [2]) was 16 mg/L (≈ 6.83 µM). For the same compound, the MIC (P. aeruginosa PA09; [1]) was 16 mg/L (≈ 6.83 µM), the MBC (P. aeruginosa PA09; [2]) was 32 mg/L (≈ 13.7 µM) and the MIC (P. aeruginosa PA31; [1]) was 16 mg/L (≈ 6.83 µM). It also gave an MBC (P. aeruginosa PA31; [2]) of 32 mg/L (≈ 13.7 µM), an MIC (P. aeruginosa PA10; [1]) of 16 mg/L (≈ 6.83 µM) and an MBC (P. aeruginosa PA10; [2]) of 32 mg/L (≈ 13.7 µM). For the same compound, the MIC (P. aeruginosa PA05; [1]) was 4 mg/L (≈ 1.71 µM), the MBC (P. aeruginosa PA05; [2]) was 8 mg/L (≈ 3.42 µM) and the MIC (P. aeruginosa PA03; [1]) was 8 mg/L (≈ 3.42 µM). For the same compound, the MBC (P. aeruginosa PA03; [2]) was 8 mg/L (≈ 3.42 µM), the MIC (P. aeruginosa PA22; [1]) was 4 mg/L (≈ 1.71 µM) and the MBC (P. aeruginosa PA22; [2]) was 32 mg/L (≈ 13.7 µM). It also gave an MIC (S. aureus SA4) greater than 32 mg/L, an MIC (S. aureus SA3) greater than 32 mg/L and an MIC90 (P. aeruginosa) of 16 mg/L (≈ 6.83 µM).
